Legend:
6 weeks-old male rat = assay: Long-term repetitive oral dosing, general side effect; assay type: in vivo; settings: orally once daily, 250 mg/kg per once
Method: Each test compounds were dissolved with an aqueous solution of trisodium phosphate, and diluted with a water for injection. The obtained drug solution was orally administrated once daily to 6 weeks-old male rat by long-term repetitive dosing at a dose of 250 mg/kg per once.

S100β = assay: Intracellular S100β content in secondary cultured astrocytes (ELISA); assay type: cell-based, rat; settings: astrocytes treated 2 weeks, control group 2177.0±147.74
From the text: The 1 to 2 day-old neonatal Wistar rats (10 animals) were decapitated and sterilized their heads in ethanol. Ethanol and blood was removed in ice-cold DMEM medium (purchased from Sigma). Meningis was peeled and cortex of cerebrum was removed in ice-cold DMEM medium (purchased from Sigma) under the stereomicroscope. The cortex of cerebrum was minced with frosted glass-slides (purchased from Matsunami) to suspension in ice-cold DMEM medium (purchased from Sigma). Cell suspension was filtrated with 70 micrometer-diameter filter (falcon2350). The filtrate was centrifuged at 100×g for 3 minutes, and the pellet was re-suspended in 10% FCS (fetal calf serum)-containing DMEM medium. The washing procedure using 10% FCS-DMEM medium was repeated 3 times and cells were re-suspended in 10% FCS-DMEM medium. The obtained cell suspension was plated in 75 cm^2 flask (falcon3024) (one flask (containing 12 ml of medium) containing cells obtained from one neonatal rat), and cultured at 37° C. under an atmosphere of 5% CO2, 95% air (0 day of culture). After 2 days of culture (2 days of culture), culture media was aspirated and flask was shaken by hands to remove an unadhesive cells. The flask was washed with DMEM medium and the suspended cells ware removed. This procedure was repeated 3 times till the unadhesive cells were removed completely confirmed by microscope. Then, 10% FCS-DMEM medium was added to flask (12 ml/flask) and cultured at 37° C. under an atmosphere of 5% CO2, 95% air (medium was changed in 12 days after onset of culture).
Primary culture of Astrocytes (19 days after onset of culture, 3 flasks) was purified by the same procedure as used in cell purification in primary culture. Then, the adhesive cells were treated with 0.05% Trypsin-1 mmol/L EDTA at 37° C. till the cells were detached. The cells were suspended in 10% FCS-DMEM medium and transferred to microtube. After centrifugation at 100×g for 3 minutes, the pellet was resuspended in 10% FCS-DMEM medium. A portion of cell suspension was mixed with an equal volume of Trypan-Blue solution. The number of living cells was measured by using the Burker-Turk counting chamber under the phase-contrast microscope. Cells were suspended in 10% FCS-DMEM medium at the cell density of 2×10^5 cells/ml and cultured in 48 well culture plate (6 plates, 0.5 ml/well) at 37° C. under an atmosphere of 5% CO2, 95% air. After 24 hour cultivation, culture medium was changed to the test-compound containing medium (0.5 ml/well), and the cultivation was conducted for 2 weeks at 37° C. under an atmosphere of 5% CO2, 95% air. The change of medium was conducted on 27 days after onset of cultivation. […]

CCC[C@H](CCCCC(C)=O)C(=O)O [Example 1(1), (2R)-7-oxo-2-propyloctanoic acid]
general side effect (6 weeks-old male rat): does not show a general side effect
intracellular content of S100β (S100β; 30 micromol/L-treated group (n=4), P<0.001 Dunnett test): 1489.0±37.84 ng/mg unit protein
intracellular content of S100β (S100β; 100 micromol/L-treated group): 1053.5±39.57 ng/mg unit protein

CCC[C@H](CCCC[C@@H](C)O)C(=O)O [Example 1(2), (2R,7R)-7-hydroxy-2-propyloctanoic acid]
intracellular content of S100β (S100β; 100 micromol/L-treated group): 1422.5±74.70 ng/mg unit protein

CCC[C@H](CCCCCCO)C(=O)O [Example 1(4), (2R)-8-hydroxy-2-propyloctanoic acid]
general side effect (6 weeks-old male rat): does not show a general side effect
intracellular content of S100β (S100β; 100 micromol/L-treated group): 1192.8±58.78 ng/mg unit protein

— patent US7579375B2, “Branched carboxylic acid compound and use thereof” (Ono Pharmaceutical Co., Ltd., priority 2003, dated 2009)
